Experimental data taken from patent US20230093099A1, “COMPOUNDS AND METHODS OF TREATING CANCERS” (CULLGEN (SHANGHAI), INC., priority 2019, published 2023).

Tested on: RS4;11 cells
Assay: Cell viability assay (CellTiter-Glo) in RS4;11 cells
Type: cell-based
Conditions: Homo sapiens, 72 h; RS4;11 ALL cells treated for three days; read-out: cell viability inhibition IC50
Outline: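 RS4;11 cells seeded at 5000 per well, exposed for 3 days to 8- or 12-point 3-fold serial dilutions. Viability read by CellTiter-Glo luminescence; IC50 fitted by nonlinear least-squares regression.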

IC50 [µM] | Compound
< 0.1 | CS(=O)(=O)c1ccc(-c2cccc3nc(Nc4ccc(N5CCN(C(=O)CCCCNc6ccc7c(c6)C(=O)N(C6CCC(=O)NC6=O)C7=O)CC5)cc4)nn23)cc1 (centres unmarked) [JA-196, 2-(2,6-dioxopiperidin-3-yl)-5-((5-(4-(4-((5-(4-(methylsulfonyl)phenyl)-[1,2,4]triazolo[1,5-a]pyridin-2-yl)amino)phenyl)piperazin-1-yl)-5-oxopentyl)amino)isoindoline-1,3-dione]

Same assay, conditions: Homo sapiens, 72 h; RS4;11 cells; cell viability, 3 days, CellTiter-Glo; read-out: IC50

Compound | IC50 [µM]
Cc1cnc(Nc2ccc(N3CCN(C(=O)CCOCCNc4ccc5c(c4)C(=O)N(C4CCC(=O)NC4=O)C5=O)CC3)cc2)nc1Nc1cccc(S(=O)(=O)NC(C)(C)C)c1 (centres unmarked) [JA-232, N-(tert-butyl)-3-((2-((4-(4-(3-(2-((2-(2,6-dioxopiperidin-3-yl)-1,3-dioxoisoindolin-5-yl)amino)ethoxy)propanoyl)piperazin-1-yl)phenyl)amino)-5-methylpyrimidin-4-yl)amino)benzenesulfonamide] | > 10
O=C1CCC(N2C(=O)c3ccc(NCCOCCOCCOCCOCCOCCC(=O)N4CCC(n5cc(-c6cnc7cccc(-c8cc(F)c(CN9CCOCC9)c(F)c8)c7n6)cn5)CC4)cc3C2=O)C(=O)N1 (centres unmarked) [JA-186, 5-((18-(4-(4-(8-(3,5-Difluoro-4-(morpholinomethyl)phenyl)quinoxalin-2-yl)-1H-pyrazol-1-yl)piperidin-1-yl)-18-oxo-3,6,9,12,15-pentaoxaoctadecyl)amino)-2-(2,6-dioxopiperidin-3-yl)isoindoline-1,3-dione] | > 10
O=C(CN1CCC(n2cc(-c3cnc4cccc(-c5cc(F)c(CN6CCOCC6)c(F)c5)c4n3)cn2)CC1)NCCCCCCCCNc1cccc2c1C(=O)N(C1CCC(=O)NC1=O)C2=O (centres unmarked) [JA-149, 2-(4-(4-(8-(3,5-Difluoro-4-(morpholinomethyl)phenyl)quinoxalin-2-yl)-1H-pyrazol-1-yl)piperidin-1-yl)-N-(8-((2-(2,6-dioxopiperidin-3-yl)-1,3-dioxoisoindolin-4-yl)amino)octyl)acetamide] | > 10
Cc1cnc(Nc2ccc(N3CCN(C(=O)CCCC(=O)N[C@H](C(=O)N4C[C@H](O)C[C@H]4C(=O)NCc4ccc(-c5scnc5C)cc4)C(C)(C)C)CC3)cc2)nc1Nc1cccc(S(=O)(=O)NC(C)(C)C)c1 [JA-023, (2S,4R)-1-((S)-2-(5-(4-(4-((4-((3-(N-(tert-Butyl)sulfamoyl)phenyl)amino)-5-methylpyrimidin-2-yl)amino)phenyl)piperazin-1-yl)-5-oxopentanamido)-3,3-dimethylbutanoyl)-4-hydroxy-N-(4-(4-methylthiazol-5-yl)benzyl)pyrrolidine-2-carboxamide] | > 10

Next, values leading:

IC50 [µM] | Compound
0.107 | CS(=O)(=O)c1ccc(-c2cccc3nc(Nc4ccc(N5CCN(C(=O)CCCCNc6ccc7c(c6)C(=O)N(C6CCC(=O)NC6=O)C7=O)CC5)cc4)nn23)cc1 (centres unmarked) [JA-196, 2-(2,6-dioxopiperidin-3-yl)-5-((5-(4-(4-((5-(4-(methylsulfonyl)phenyl)-[1,2,4]triazolo[1,5-a]pyridin-2-yl)amino)phenyl)piperazin-1-yl)-5-oxopentyl)amino)isoindoline-1,3-dione]
> 10 | CS(=O)(=O)c1ccc(-c2cccc3nc(Nc4ccc(N5CCN(C(=O)CCOCCNc6ccc7c(c6)C(=O)N(C6CCC(=O)NC6=O)C7=O)CC5)cc4)nn23)cc1 (centres unmarked) [JA-195, 2-(2,6-Dioxopiperidin-3-yl)-5-((2-(3-(4-(4-((5-(4-(methylsulfonyl)phenyl)-[1,2,4]triazolo[1,5-a]pyridin-2-yl)amino)phenyl)piperazin-1-yl)-3-oxopropoxy)ethyl)amino)isoindoline-1,3-dione]
2.27 | Cc1cnc(Nc2ccc(N3CCN(C(=O)CCCCNc4cccc5c4C(=O)N(C4CCC(=O)NC4=O)C5=O)CC3)cc2)nc1Nc1cccc(S(=O)(=O)NC(C)(C)C)c1 (centres unmarked) [JA-107, N-(tert-Butyl)-3-((2-((4-(4-(5-((2-(2,6-dioxopiperidin-3-yl)-1,3-dioxoisoindolin-4-yl)amino)pentanoyl)piperazin-1-yl)phenyl)amino)-5-methylpyrimidin-4-yl)amino)benzenesulfonamide]
